Source: patent US20240294466A1, “SODIUM N-(8-(2- HYDROXYBENZOYL)AMINO)CAPRYLATE P[…] A” (Novo Nordisk A/S, priority 2021, published 2024)

Columns and labels:
Format in all cases: physicochemical
[1] = XRPD FWHM of the peak at 8.7±0.2° 2θ (degree of crystal imperfections), method 1; settings: Batch 5, tray oven
Experimental: (§1) XRPD was performed using a Malvern Panalytical Empyrean diffractometer at ambient conditions. The diffraction pattern was measured at room temperature using an Empyrean Cu LFF HR (45 kV/40 mA) source and PIXcel3D-Medipix3 1×1 detector. The measurement was performed in the range of 2-40° 20 using a scan speed of 0.067335° 2θ/s and a step size of 0.0262606° 2θ. The samples were measured in transmission mode and with a spinner revolution time of 1 second. Approximately 200 mg of sample were placed between two sheets of Kapton Polyimide Thin-film. The measurements were performed using a Soller slit of 0.04 radians and a fixed divergence slit of 0.5° on the incident beam, and a 3 mm Anti scatter slit and a Soller slit of 0.04 radians in the diffracted beam.
The degree of crystal imperfections was assessed by use of the FWHM as more crystal imperfections might cause peak broadening and lower peak height, which leads to higher FWHM values due to fewer lattice planes with identical orientation contributing to the diffraction peak. Oppositely, in the absence of crystal imperfections, lattice planes with identical orientation increase and result in narrower and higher diffraction peaks leading to smaller FWHM values. The FWHM was calculated using the characteristic peak at 8.7±0.2° 2θ by finding the apex of the peak and measuring the height of the peak applying the x-axis as the baseline (automatic mode) (see FIG. 11) or applying a baseline spanning the two surrounding troughs (manual mode) (see FIG. 12). This value is then divided in half to find the half height. Hereafter the width of the peak at that half height is measured and reported in ° 2θ. Alternatively, the peak at 6.0±0.2° 2θ may also be used to calculate the FWHM.
(§2) Samples from a batch of SNAC polymorphic form A (Batch 5) with a FWHM of 0.97° 2θ (automatic mode) and a moisture uptake of 1.98% at 65% RH from the beginning were heated to 90, 100, 110, 120, 130, and 140° C., respectively, in a tray oven. The samples were exposed to their respective temperatures for up to 72 h. The sample size was small enough to ensure that the samples equilibrated completely, within a few of minutes, to the oven temperature. Samples were taken during the 72 h of elevated temperature exposure and subjected to XRPD measurements in accordance with method 1 to determine the polymorphic form and impact on crystal imperfections using FWHM with the x-axis as the baseline (automatic mode).
(§3) Samples from different batches of SNAC polymorphic form A were subjected to a heat treatment in a tray oven and the sample size was small enough to ensure that the samples equilibrated completely and within a couple of minutes to the oven temperature. Samples were taken from the batches before the heat treatment and after the heat treatment and subjected to XRPD measurements in accordance with method 1 to determine the polymorphic form and impact on crystal imperfections using FWHM with the x-axis as the baseline (auto mode). Furthermore, samples were also subjected to DVS measurements in accordance with method 3 to determine the impact of the heat treatment on the hygroscopicity.

[2] = Polymorphic form determined by XRPD, method 1; settings: for Polymorphic form of SNAC determined by XRPD: Batch 5, tray oven
Experimental: as §1
The polymorphic form of the sample was determined by comparison of the diffractogram obtained for the sample with reference diffractograms for the SNAC polymorphs and solvates.
as §2, §3

[3] = Dynamic vapour sorption (DVS) moisture uptake, method 3; settings: for mass increase when subjected to an increase in relative humidity from about 0% to about 65% RH as determined by DVS: 25° C.; for Moisture absorbed for SNAC at 65% RH determined by DVS: DVS at 25 °C
Experimental: Moisture sorption/desorption data were measured by a Dynamic Vapour Sorption Advantage 1 from Surface Measurement Systems. Prior to analysis the samples were dried for up to about 48 h in desiccators containing phosphorus pentoxide. Approximately 20 mg of sample was placed into a balance pan and loaded into the instrument and the sample was then further dried for a minimum of 500 min in the instrument at 0% RH using a nitrogen purge. The resulting sample weight after the further drying was assigned as the 0% start weight and all weight gains and losses was calculated relative to this start weight. Sorption and desorption isotherms were collected over a range from 0 to 90% relative humidity (RH) using a nitrogen purge at 25° C. The threshold for equilibrium used for analysis was 0.002 to 0.0005 dm/dt.
Furthermore, samples were taken after 24 h of exposure at the indicated elevated temperatures and were subjected to dynamic vapor sorption measurements in accordance with method 3 to determine the hygroscopicity. The moisture uptake was measured at 65% RH. The hygroscopicity is decreased as the moisture absorbed at 65% RH decreases when exposing SNAC polymorphic form A to elevated temperatures for 24 h.

Structure (SMILES): O=C([O-])CCCCCCCNC(=O)c1ccccc1O.[Na+] [SNAC, monosodium N-[8-(2-hydroxybenzoyl)-amino]caprylate]
- FWHM (automatic mode) for the XRPD peak around 8.7 ± 0.2° 2θ ([1]; 90 °C, 0 h): 0.97 ° 2θ
- FWHM (automatic mode) for the XRPD peak around 8.7 ± 0.2° 2θ ([1]; 90 °C, 0.25 h): 0.95 ° 2θ
- FWHM (automatic mode) for the XRPD peak around 8.7 ± 0.2° 2θ ([1]; 90 °C, 0.5 h): 0.95 ° 2θ
- FWHM (automatic mode) for the XRPD peak around 8.7 ± 0.2° 2θ ([1]; 90 °C, 1 h): 0.92 ° 2θ
- FWHM (automatic mode) for the XRPD peak around 8.7 ± 0.2° 2θ ([1]; 90 °C, 6 h): 0.92 ° 2θ
- FWHM (automatic mode) for the XRPD peak around 8.7 ± 0.2° 2θ ([1]; 90 °C, 24 h): 0.89 ° 2θ
- FWHM (automatic mode) for the XRPD peak around 8.7 ± 0.2° 2θ ([1]; 90 °C, 48 h): 0.89 ° 2θ
- FWHM (automatic mode) for the XRPD peak around 8.7 ± 0.2° 2θ ([1]; 90 °C, 72 h): 0.89 ° 2θ
- FWHM (automatic mode) for the XRPD peak around 8.7 ± 0.2° 2θ ([1]; 100 °C, 0 h): 0.97 ° 2θ
- FWHM (automatic mode) for the XRPD peak around 8.7 ± 0.2° 2θ ([1]; 100 °C, 0.25 h): 1.02 ° 2θ
- FWHM (automatic mode) for the XRPD peak around 8.7 ± 0.2° 2θ ([1]; 100 °C, 0.5 h): 0.95 ° 2θ
- FWHM (automatic mode) for the XRPD peak around 8.7 ± 0.2° 2θ ([1]; 100 °C, 1 h): 0.95 ° 2θ
- FWHM (automatic mode) for the XRPD peak around 8.7 ± 0.2° 2θ ([1]; 100 °C, 6 h): 0.89 ° 2θ
- FWHM (automatic mode) for the XRPD peak around 8.7 ± 0.2° 2θ ([1]; 100 °C, 24 h): 0.81 ° 2θ
- FWHM (automatic mode) for the XRPD peak around 8.7 ± 0.2° 2θ ([1]; 100 °C, 48 h): 0.81 ° 2θ
- FWHM (automatic mode) for the XRPD peak around 8.7 ± 0.2° 2θ ([1]; 100 °C, 72 h): 0.81 ° 2θ
- FWHM (automatic mode) for the XRPD peak around 8.7 ± 0.2° 2θ ([1]; 110 °C, 0 h): 0.97 ° 2θ
- FWHM (automatic mode) for the XRPD peak around 8.7 ± 0.2° 2θ ([1]; 110 °C, 0.25 h): 0.92 ° 2θ
- FWHM (automatic mode) for the XRPD peak around 8.7 ± 0.2° 2θ ([1]; 110 °C, 0.5 h): 0.84 ° 2θ
- FWHM (automatic mode) for the XRPD peak around 8.7 ± 0.2° 2θ ([1]; 110 °C, 1 h): 0.87 ° 2θ
- FWHM (automatic mode) for the XRPD peak around 8.7 ± 0.2° 2θ ([1]; 110 °C, 6 h): 0.71 ° 2θ
- FWHM (automatic mode) for the XRPD peak around 8.7 ± 0.2° 2θ ([1]; 110 °C, 24 h): 0.66 ° 2θ
- FWHM (automatic mode) for the XRPD peak around 8.7 ± 0.2° 2θ ([1]; 110 °C, 48 h): 0.60 ° 2θ
- FWHM (automatic mode) for the XRPD peak around 8.7 ± 0.2° 2θ ([1]; 110 °C, 72 h): 0.58 ° 2θ
- FWHM (automatic mode) for the XRPD peak around 8.7 ± 0.2° 2θ ([1]; 120 °C, 0 h): 0.97 ° 2θ
- FWHM (automatic mode) for the XRPD peak around 8.7 ± 0.2° 2θ ([1]; 120 °C, 0.25 h): 0.81 ° 2θ
- FWHM (automatic mode) for the XRPD peak around 8.7 ± 0.2° 2θ ([1]; 120 °C, 0.5 h): 0.76 ° 2θ
- FWHM (automatic mode) for the XRPD peak around 8.7 ± 0.2° 2θ ([1]; 120 °C, 1 h): 0.71 ° 2θ
- FWHM (automatic mode) for the XRPD peak around 8.7 ± 0.2° 2θ ([1]; 120 °C, 6 h): 0.63 ° 2θ
- FWHM (automatic mode) for the XRPD peak around 8.7 ± 0.2° 2θ ([1]; 120 °C, 24 h): 0.58 ° 2θ
- FWHM (automatic mode) for the XRPD peak around 8.7 ± 0.2° 2θ ([1]; 120 °C, 48 h): 0.58 ° 2θ
- FWHM (automatic mode) for the XRPD peak around 8.7 ± 0.2° 2θ ([1]; 120 °C, 72 h): 0.53 ° 2θ
- FWHM (automatic mode) for the XRPD peak around 8.7 ± 0.2° 2θ ([1]; 130 °C, 0 h): 0.97 ° 2θ
- FWHM (automatic mode) for the XRPD peak around 8.7 ± 0.2° 2θ ([1]; 130 °C, 0.25 h): 0.81 ° 2θ
- FWHM (automatic mode) for the XRPD peak around 8.7 ± 0.2° 2θ ([1]; 130 °C, 0.5 h): 0.74 ° 2θ
- FWHM (automatic mode) for the XRPD peak around 8.7 ± 0.2° 2θ ([1]; 130 °C, 1 h): 0.66 ° 2θ
- FWHM (automatic mode) for the XRPD peak around 8.7 ± 0.2° 2θ ([1]; 130 °C, 6 h): 0.50 ° 2θ
- FWHM (automatic mode) for the XRPD peak around 8.7 ± 0.2° 2θ ([1]; 130 °C, 24 h): 0.50 ° 2θ
- FWHM (automatic mode) for the XRPD peak around 8.7 ± 0.2° 2θ ([1]; 130 °C, 48 h): 0.50 ° 2θ
- FWHM (automatic mode) for the XRPD peak around 8.7 ± 0.2° 2θ ([1]; 130 °C, 72 h): 0.50 ° 2θ
- FWHM (automatic mode) for the XRPD peak around 8.7 ± 0.2° 2θ ([1]; 140 °C, 0 h): 0.97 ° 2θ
- FWHM (automatic mode) for the XRPD peak around 8.7 ± 0.2° 2θ ([1]; 140 °C, 0.25 h): 0.68 ° 2θ
- FWHM (automatic mode) for the XRPD peak around 8.7 ± 0.2° 2θ ([1]; 140 °C, 0.5 h): 0.58 ° 2θ
- FWHM (automatic mode) for the XRPD peak around 8.7 ± 0.2° 2θ ([1]; 140 °C, 1 h): 0.53 ° 2θ
- FWHM (automatic mode) for the XRPD peak around 8.7 ± 0.2° 2θ ([1]; 140 °C, 6 h): 0.45 ° 2θ
- FWHM (automatic mode) for the XRPD peak around 8.7 ± 0.2° 2θ ([1]; 140 °C, 24 h): 0.45 ° 2θ
- FWHM (automatic mode) for the XRPD peak around 8.7 ± 0.2° 2θ ([1]; 140 °C, 48 h): 0.42 ° 2θ
- FWHM (automatic mode) for the XRPD peak around 8.7 ± 0.2° 2θ ([1]; 140 °C, 72 h): 0.45 ° 2θ
- Polymorphic form of SNAC determined by XRPD ([2]; 120 °C, 48 h): A & B
- Polymorphic form of SNAC determined by XRPD ([2]; 120 °C, 72 h): A & B
- Polymorphic form of SNAC determined by XRPD ([2]; 130 °C, 6 h): A & B
- Polymorphic form of SNAC determined by XRPD ([2]; 130 °C, 24 h): A & B
- Polymorphic form of SNAC determined by XRPD ([2]; 130 °C, 48 h): A & B
- Polymorphic form of SNAC determined by XRPD ([2]; 130 °C, 72 h): A & B
- Polymorphic form of SNAC determined by XRPD ([2]; 140 °C, 1 h): A & B
- Polymorphic form of SNAC determined by XRPD ([2]; 140 °C, 6 h): A & B
- Polymorphic form of SNAC determined by XRPD ([2]; 140 °C, 24 h): A & B
- Polymorphic form of SNAC determined by XRPD ([2]; 140 °C, 48 h): A & B
- Polymorphic form of SNAC determined by XRPD ([2]; 140 °C, 72 h): A & B
- onset time of conversion into polymorphic form B ([2]; at 120° C.): more than 24 h
- onset time of conversion into polymorphic form B ([2]; at 130° C.): > 1 h
- onset time of conversion into polymorphic form B ([2]; at 140° C.): > 0.5 h
- conversion of the polymorphic form ([2]; exposure for up to 72 h at temperatures up to about 110° C.): does not convert
- mass increase when subjected to an increase in relative humidity from about 0% to about 65% RH as determined by DVS ([3]; sample of FIG. 1): less than 1.0%
- mass increase when subjected to an increase in relative humidity from about 0% to about 65% RH as determined by DVS ([3]; sample of FIG. 2): about 1.3%
- mass increase when subjected to an increase in relative humidity from about 0% to about 65% RH as determined by DVS ([3]; sample of FIG. 3): about 2.9%
- Moisture absorbed for SNAC at 65% RH determined by DVS ([3]; Batch 5, after 24 h at 90 °C): 1.73%
- Moisture absorbed for SNAC at 65% RH determined by DVS ([3]; Batch 5, after 24 h at 100 °C): 1.37%
- Moisture absorbed for SNAC at 65% RH determined by DVS ([3]; Batch 5, after 24 h at 110 °C): 1.21%
- Moisture absorbed for SNAC at 65% RH determined by DVS ([3]; Batch 5, after 24 h at 120 °C): 0.94%
- Moisture absorbed for SNAC at 65% RH determined by DVS ([3]; Batch 5, after 24 h at 130 °C): 0.81%
- Moisture absorbed for SNAC at 65% RH determined by DVS ([3]; Batch 5, after 24 h at 140 °C): 0.74%
